Active and inactive are the calls of the source.
Columns and labels:
[1] = cells; settings: HEK293
[2] = viability loss in HepG2 liver cells – cell-based, ATP luminescence, cherry-pick, set 6, cytotoxicity control, dose response (AID 1053125); assay type: functional
[3] = cells; settings: A549
[4] = A Cell-Based Confirmatory Screen for Compounds that Inhibit VEEV TC-83 (4).; assay type: functional
[5] = A Cell-Based Confirmatory Screen for Compounds that Inhibit VEEV, TC-83 (8).; assay type: functional
[6] = A Cell-Based Confirmatory Screen for Compounds that Inhibit VEEV, TC-83 (5).; assay type: functional
[7] = molecular target: Metabotropic glutamate receptor 3 (Rattus norvegicus, UniProt P31422); assay: inhibition of rat mGlu3 glutamate signaling – HEK/GIRK cells, thallium flux, dose response (AID 651839); assay type: functional
[8] = molecular target: T1, Oxysterols receptor LXR-beta (Homo sapiens, UniProt P55055); assay type: functional, cell-based;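 also: agonist activity at LXR measured by a cell-based luminescence readout across a dose range, run as a counterscreen for daf-12 agonists; HEK293 cells with Gal4-LXR fusion and GAL4-driven luciferase reporter; potency for activation of Gal4-LXR reporter so compounds are agonists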
T1 sequence (P55055 whole entry): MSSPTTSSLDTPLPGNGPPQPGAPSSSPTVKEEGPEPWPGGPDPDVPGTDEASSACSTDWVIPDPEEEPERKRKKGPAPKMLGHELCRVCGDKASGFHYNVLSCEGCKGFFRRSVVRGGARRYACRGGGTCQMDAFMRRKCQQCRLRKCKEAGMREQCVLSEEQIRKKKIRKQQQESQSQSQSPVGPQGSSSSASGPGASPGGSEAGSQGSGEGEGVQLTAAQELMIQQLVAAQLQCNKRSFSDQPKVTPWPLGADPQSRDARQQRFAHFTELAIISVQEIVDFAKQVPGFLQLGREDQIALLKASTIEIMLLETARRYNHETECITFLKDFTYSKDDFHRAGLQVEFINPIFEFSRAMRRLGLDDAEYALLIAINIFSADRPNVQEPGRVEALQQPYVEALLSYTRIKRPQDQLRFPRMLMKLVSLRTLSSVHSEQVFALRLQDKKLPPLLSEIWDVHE

[9] = Dd2 parasite growth inhibition in erythrocytes – SYBR Green, dry powder samples, set 4, dose response (AID 1159572); assay type: functional, cell-based
[10] = toxicity to human HepG2 hepatoma cells – cell-based, plate reader, dry powder samples, cytotoxicity control, dose response (AID 1159569); assay type: functional;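 also: inhibitor potency with signal falling toward the positive control level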
[11] = Dd2 malaria parasite growth inhibition potency – SYBR Green, dry powder samples, dose response (AID 1159566); assay type: functional, cell-based;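 also: potency for growth inhibition with lower SYBR green DNA signal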
[12] = P. falciparum Dd2 growth inhibitors, dose response, SYBR Green, cherry-picked samples (AID 1159567); assay type: functional, cell-based
[13] = growth inhibition of yeast DHODH-expressing 3D7 parasites – SYBR Green, dry powder samples, dose response (AID 1159570); assay type: functional, cell-based;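 also: parasite growth measured after 72 hours of compound exposure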
[14] = growth inhibition of PfATP4-mutant resistant parasites – NITD609-resistant line, SYBR Green, dry powder, dose response (AID 1159571); assay type: functional, cell-based;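 also: parasites synchronized at ring stage by sorbitol before testing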
[15] = toxicity to human hepatoma HepG2 cells – cell-based, cherry-picked samples, cytotoxicity control, dose response (AID 1159577); assay type: functional
[16] = toxicity to HepG2 liver cells – cell-based, plate reader, dry powder, set 6, cytotoxicity control, dose response (AID 743311); assay type: functional
[17] = toxicity to A549 lung cells – cell-based, plate reader, dry powder, set 6, cytotoxicity control, dose response (AID 743312); assay type: functional
[18] = cells; settings: HEK293; remark: listed apart in the source
[19] = RKO cell viability reduction, dose response, CellTiter-Glo luminescence (AID 1117322); assay type: functional
[20] = rise of 4N DNA cells, HeLa – IC50, dose response (AID 1117351); assay type: functional, cell-based
[21] = cytotoxicity toward HCT116 cells – cell-based, CellTiter-Glo luminescence, IC50, dose response (AID 1117332); assay type: functional; settings: HCT-116
[22] = rise of 2N DNA cells, HeLa – IC50, dose response (AID 1117349); assay type: functional, cell-based
[23] = Reduced DLD-1 viability, concentration-response, CellTiter-Glo luminescence (AID 1117352); assay type: functional
[24] = CellTiter-Glo luminescence survival assay, SW480 colon tumor line, concentration-response curve, half-maximal inhibitory concentration (AID 1117338); assay type: functional
[25] = cytotoxicity toward Colo320 cells – cell-based, CellTiter-Glo luminescence, IC50, dose response (AID 1117334); assay type: functional; settings: COLO 320
[26] = SNU-C1 cell viability reduction, dose response, CellTiter-Glo luminescence (AID 1117323); assay type: functional, cell-based
[27] = cytotoxicity toward HT-29 cells – cell-based, CellTiter-Glo luminescence, IC50, dose response (AID 1117330); assay type: functional

Metabotropic glutamate receptor 3, sequence (P31422 whole entry, the tested form may be a part): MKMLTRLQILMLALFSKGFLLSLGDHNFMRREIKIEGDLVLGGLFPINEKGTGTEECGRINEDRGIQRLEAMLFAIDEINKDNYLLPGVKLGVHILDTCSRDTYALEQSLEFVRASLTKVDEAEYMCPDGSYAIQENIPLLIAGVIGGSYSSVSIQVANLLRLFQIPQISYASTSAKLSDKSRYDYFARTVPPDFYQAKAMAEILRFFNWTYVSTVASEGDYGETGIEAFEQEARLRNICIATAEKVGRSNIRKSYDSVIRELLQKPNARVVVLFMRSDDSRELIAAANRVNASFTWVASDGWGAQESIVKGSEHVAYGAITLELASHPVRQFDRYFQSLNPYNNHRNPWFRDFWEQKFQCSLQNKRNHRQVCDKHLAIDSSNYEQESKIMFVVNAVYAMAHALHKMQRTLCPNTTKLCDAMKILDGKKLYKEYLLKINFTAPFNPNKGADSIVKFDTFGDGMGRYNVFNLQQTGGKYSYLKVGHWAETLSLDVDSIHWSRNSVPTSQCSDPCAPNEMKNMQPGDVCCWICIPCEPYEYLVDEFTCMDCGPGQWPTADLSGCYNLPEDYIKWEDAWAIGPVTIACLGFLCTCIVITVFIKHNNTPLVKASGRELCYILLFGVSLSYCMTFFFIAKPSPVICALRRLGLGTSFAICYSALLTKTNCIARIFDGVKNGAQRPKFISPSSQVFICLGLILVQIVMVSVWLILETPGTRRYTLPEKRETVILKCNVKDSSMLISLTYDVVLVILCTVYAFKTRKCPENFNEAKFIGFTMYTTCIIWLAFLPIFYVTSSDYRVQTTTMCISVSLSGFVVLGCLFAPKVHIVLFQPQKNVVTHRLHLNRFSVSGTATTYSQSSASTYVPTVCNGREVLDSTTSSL

With `O=c1oc2cc(O)ccc2cc1-c1nc2ccccc2o1` the AC50 [1] was 26.6 µM (active), the AC50 [2] was > 52 µM (inactive) and the AC50 [3] was > 52 µM (inactive).

With `O=c1c2cc([N+](=O)[O-])ccc2nc(CN2CCNCC2)n1-c1ccccc1F` the IC50 [4] was 0.073 µM (active), the IC50 [5] was < 0.198 µM (active) and the IC50 [6] was < 0.23 µM (active).

For `COc1ccc(OC)c(-c2ccc3cc(C(=O)N4CCCC(CO)C4)ccc3c2)c1` (stereo not drawn), the IC50 [7] was 9.16 µM (active).

With `Nc1ncc(Br)cc1/N=C/c1ccccc1` the EC50 [8] was > 67.5 µM (inactive).

With `CCCNC(=O)N1CCC2(CC1)CN(C(C)=O)[C@@H](CO)c1[nH]c3cc(OC)ccc3c12` the AC50 [9] was 9.51 µM (active).

For `COc1ccc(C#Cc2ccc3c(c2)[C@@H]2[C@@H](CCN2C(=O)C2CCCC2)[C@@H](CO)N3)cc1`, the AC50 [10] was > 100 µM (inactive), the AC50 [11] was 1.09 µM (active) and the AC50 [12] was 2.82 µM (active). For the same molecule, the AC50 [13] was 1.31 µM (active) and the AC50 [14] was 1.1 µM (active).

In the case of `Cc1cccc(S(=O)(=O)N2CCCCN3[C@@H](CO)[C@@H](c4ccc(C#CC5CC5)cc4)[C@@H]3C2)c1`, the AC50 [12] is reported as 1.3 µM (active) and the AC50 [15] is reported as 14.4 µM (active).

In the case of `CC(C)c1ccccc1OCCn1c(=S)[nH]c2ccccc21`, the AC50 [16] is reported as 32.9 µM (active), the AC50 [17] is reported as 21.1 µM (active) and the AC50 [18] is reported as 27.6 µM (active).

In the case of `O=c1c(-c2ccccc2)c1-c1ccccc1` [DIPHENCYPRONE], the IC50 [19] is reported as > 20 µM (inactive), the IC50 [20] is reported as > 10 µM (inactive) and the IC50 [21] is reported as > 20 µM (inactive). The IC50 [22] was > 10 µM (inactive), the IC50 [23] was 4.21 µM (active) and the IC50 [24] was > 20 µM (inactive). For the same molecule, the IC50 [25] was 3.1 µM (active), the IC50 [26] was > 20 µM (inactive) and the IC50 [27] was > 20 µM (inactive).
